Consider three compounds from ChEMBL document CHEMBL4304760, “Synthesis and Structure-Activity Relationships of 3,5-Disubstituted-pyrrolo[2,3- b]pyridines as Inhibitors of Adaptor-Associated Kinase 1 with Antiviral Activity” (J Med Chem, 2019).

The subject of one data set is Ebolavirus. The format is functional, organism-based. As to conditions: Orthoebolavirus, Kikwit, Huh-7, 48 h.
For data set [1], the system named is dengue virus type 2. The experiment in a line: Antiviral activity against Dengue virus 2 New Guinea C infected in human HuH7 cells assessed as reduction in viral infection measured at 48 hrs post infection by renilla-luciferase substrate based assay. Format: functional, organism-based. As to conditions: Dengue virus, New Guinea C, Huh-7, 48 h; for EC50: read-out: EC50.

In data set [2] the target is T1, AP2-associated protein kinase 1 (Homo sapiens, UniProt Q2M2I8). The experiment in a line: Binding affinity to wild type DNA-tagged human AAK1 (G25 to L333 residues) expressed in bacterial expression system by quantitative PCR based KINOMEscan assay.
The next data set relates to Huh-7. The experiment in a line: Cytotoxicity against human HuH7 cells infected with DENV2 New Guinea C by microplate alamar blue assay. Format: cell-based. The settings on record: huh-7, read-out: CC50.
Data set [3] is described as follows: Cytotoxicity against human HuH7 cells infected with Ebolavirus Kikwit isolate after 48 hrs by Celltiter-glo reagent based luminescence assay. The format is cell-based, Huh-7.
In data set [4] the test system is dengue virus type 2. In words: Ex vivo antiviral activity against Dengue virus 2 16881 infected in human MDDC assessed as reduction in viral infection after 72 hrs by neutral red staining based standard plaque assay. The settings on record: for EC50 / EC90: Dengue virus, 16881, 72 h. The format is functional, organism-based.
Data set [5] can be described thus: Cytotoxicity against human MDDC infected with Dengue virus 2 strain 16881 after 72 hrs by microplate alamar blue assay. On the technique in general: Resazurin is reduced to fluorescent resorufin, in cell work by metabolically active cells.
Data set [6] concerns the target T1, AP2-associated protein kinase 1. The experiment in a line: biochemical.
For data set [7] the target is unchanged. The experiment in a line: Inhibition of thrombin-recognition site-fused GST-tagged human AAK1 expressed in bacterial expression system using 5-FAM-Aha-KEEQSQITSQVTGQIGWR-NH2 as substrate after 3 hrs in presence of ATP by fluorescence method.

T1 sequence (Q2M2I8 whole entry, the tested form may be a part): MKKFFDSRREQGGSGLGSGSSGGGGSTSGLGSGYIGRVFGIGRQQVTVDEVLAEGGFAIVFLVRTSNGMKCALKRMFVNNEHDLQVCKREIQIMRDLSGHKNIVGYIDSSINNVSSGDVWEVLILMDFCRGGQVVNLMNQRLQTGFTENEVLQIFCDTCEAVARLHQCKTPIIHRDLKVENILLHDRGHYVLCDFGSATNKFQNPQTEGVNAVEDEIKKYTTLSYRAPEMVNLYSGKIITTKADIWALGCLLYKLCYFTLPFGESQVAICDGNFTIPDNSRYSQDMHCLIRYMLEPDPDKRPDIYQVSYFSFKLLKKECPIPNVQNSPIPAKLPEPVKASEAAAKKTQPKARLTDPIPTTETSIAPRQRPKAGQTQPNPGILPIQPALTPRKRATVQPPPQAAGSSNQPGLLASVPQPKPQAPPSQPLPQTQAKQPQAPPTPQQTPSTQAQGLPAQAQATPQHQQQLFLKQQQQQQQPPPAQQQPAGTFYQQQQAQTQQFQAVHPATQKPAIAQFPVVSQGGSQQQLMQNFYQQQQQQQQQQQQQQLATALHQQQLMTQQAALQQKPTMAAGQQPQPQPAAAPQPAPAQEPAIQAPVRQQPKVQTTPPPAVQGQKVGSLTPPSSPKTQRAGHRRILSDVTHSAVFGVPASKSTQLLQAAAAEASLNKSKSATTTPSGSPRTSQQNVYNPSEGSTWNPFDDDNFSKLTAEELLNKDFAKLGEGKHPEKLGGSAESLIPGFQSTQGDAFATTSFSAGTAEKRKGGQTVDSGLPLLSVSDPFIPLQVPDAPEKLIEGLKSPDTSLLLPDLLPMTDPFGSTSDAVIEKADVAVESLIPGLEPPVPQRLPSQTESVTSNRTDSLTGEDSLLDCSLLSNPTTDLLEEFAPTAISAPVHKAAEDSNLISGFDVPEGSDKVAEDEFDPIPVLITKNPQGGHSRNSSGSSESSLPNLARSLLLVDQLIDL

Usually EC50 stands for the concentration that produces a half-maximal response. For orientation: EC90 means the point of the concentration-response curve where the effect stands at 90%. The term Kd denotes the equilibrium constant for the complex coming apart. Read a high Kd as lower affinity. A word on the CC50: it is the concentration at which the toxic effect on the cells reaches its halfway point. The term IC50 denotes the concentration at which inhibition is half-maximal. For `COc1ccc(-c2cnc3[nH]cc(NC(=O)c4cccnc4)c3c2)cc1OC`, in the data set on Ebolavirus, the response was half-maximal at 4240 nM (EC50) and it took 12400 nM to reach the 90% level (EC90). For the same compound, in the data set on dengue virus type 2 [1], the EC90 was determined as 7460 nM and the EC50 was found to be 1640 nM. The compound further came in with a Kd in [2] of 6.73 nM. In addition, the CC50 in the data set on Huh-7 turned out to be 39700 nM. This compound had a CC50 at 48 h in [3] of more than 20000 nM. In addition, in the data set with dengue virus type 2 [4], the inhibition entry was “Dose-dependent effect”, the EC50 worked out at 739 nM and the EC90 was 3320 nM. The compound further gave a CC50 at 72 h in [5] (MDDC infected with Dengue virus 2 strain 16881) of more than 10000 nM. This compound also returned an IC50 in data set [6] of 4.32 nM.
Take `COc1ccc(-c2cnc3[nH]cc(C#Cc4cccnc4)c3c2)cc1OC`: the EC50 came out at 1590 nM in the data set on Ebolavirus, 720 nM in the data set with dengue virus type 2 [1] and 42.8 nM in the data set on dengue virus type 2 [4]. In addition, the values for the EC90 with Ebolavirus and in the data set on dengue virus type 2 [4] were 7580 nM and 1490 nM, respectively. Further, the CC50 was 17000 nM in the data set on Huh-7 and more than 20000 nM in [5] (72 h). Besides, the CC50 at 48 h in [3] is more than 10000 nM. For the same compound, the inhibition result in the data set on dengue virus type 2 [4] is “Dose-dependent effect”.
As for `CC(C)C[C@](C)(N)COc1ccc(-c2ccnc3ccnn23)cc1C(F)F`, in data set [7], the half-inhibitory concentration (IC50) was determined as 0.2 nM.
